Test results reported in US12331046B2, “CTPS1 inhibitors and uses thereof” (Nimbus Clotho, Inc., priority 2020, dated 2025).
pIC50: −log10 of the molar value.

Target: human CTPS1 (Homo sapiens (Human), UniProt P17812)
Assay: hCTPS1 biochemical assay (ADP-Glo)
Details: hCTPS1 25 nM, ATP 120 uM, UTP 160 uM, GTP 60 uM, L-Glutamine 100 uM, 25 degrees C

human CTPS1, sequence (P17812 whole entry): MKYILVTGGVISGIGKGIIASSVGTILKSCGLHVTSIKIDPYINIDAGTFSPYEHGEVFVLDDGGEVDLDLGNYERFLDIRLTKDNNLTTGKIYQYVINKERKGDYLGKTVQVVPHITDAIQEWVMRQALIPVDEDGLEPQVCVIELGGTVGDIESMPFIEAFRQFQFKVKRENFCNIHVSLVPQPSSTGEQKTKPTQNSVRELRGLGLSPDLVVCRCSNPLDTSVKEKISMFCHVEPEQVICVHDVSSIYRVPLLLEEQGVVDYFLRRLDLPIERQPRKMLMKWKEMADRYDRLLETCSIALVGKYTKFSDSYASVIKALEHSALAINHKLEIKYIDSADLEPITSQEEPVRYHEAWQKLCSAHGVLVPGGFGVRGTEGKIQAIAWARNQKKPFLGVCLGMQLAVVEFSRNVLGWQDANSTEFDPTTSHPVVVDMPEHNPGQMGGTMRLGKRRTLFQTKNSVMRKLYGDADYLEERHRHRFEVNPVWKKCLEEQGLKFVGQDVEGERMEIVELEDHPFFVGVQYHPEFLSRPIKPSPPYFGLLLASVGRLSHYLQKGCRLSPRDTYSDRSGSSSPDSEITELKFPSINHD

Row | Structure (SMILES) | pIC50
1 | CCOc1cncc(-c2cnc(C(=O)N3CCC[C@H]3c3ccnc(NS(=O)(=O)C4CC4)n3)s2)n1 [I-271, N-[4-[(2S)-1-[5-(6-ethoxypyrazin-2-yl)-1,3-thiazole-2-carbonyl]pyrrolidin-2-yl]pyrimidin-2-yl]cyclopropanesulfonamide] | > 7.00
2 | CCOc1cncc(-c2ccc(C(=O)NCc3cc(NS(=O)(=O)C(F)F)ccn3)nc2)n1 [I-30, N-[[4-(difluoromethanesulfonamido)pyridin-2-yl]methyl]-5-(6-ethoxypyrazin-2-yl) pyridine-2-carboxamide] | > 7.00
3 | CCOc1cncc(-c2cnc(C(=O)NC(CCOC)c3cc(NS(=O)(=O)C4CC4)ccn3)s2)n1 (stereo not shown) [I-186] | > 7.00
4 | CCOc1cncc(-c2cnc(C(=O)NC(CCN3CCOCC3)c3cc(NS(=O)(=O)C4CC4)ccn3)s2)n1 (stereo not shown) [I-179, N-(1-(4-(cyclopropanesulfonamido)pyridin-2-yl)-3-morpholinopropyl)-5-(6-ethoxypyrazin-2-yl)thiazole-2-carboxamide] | > 7.00
5 | CCOc1cncc(-c2ncc(C(=O)N3CCC[C@@H]3c3cccc(NS(=O)(=O)C(F)F)c3)s2)n1 [I-74, N-[3-[(2R)-1-[2-(6-ethoxypyrazin-2-yl)-1,3-thiazole-5-carbonyl]pyrrolidin-2-yl]phenyl]-1,1-difluoromethanesulfonamide] | > 7.00
6 | O=C(NCc1cc(NS(=O)(=O)C2CC2)ccn1)c1ncc(-c2cnn3cccc3c2)s1 [I-200, N-((4-(cyclopropanesulfonamido)pyridin-2-yl)methyl)-5-(pyrrolo[1,2-b]pyridazin-3-yl)thiazole-2-carboxamide] | 6.00 to 7.00
7 | O=C(NCc1cc(NS(=O)(=O)C2CC2)ccn1)c1ncc(-c2cncc(OCC(F)(F)F)n2)s1 [I-243] | > 7.00
8 | O=C(NC1(c2csc(NS(=O)(=O)C3CC3)n2)CC1)c1ccc2ncccc2c1 [I-9, N-(1-(2-(cyclopropanesulfonamido)thiazol-4-yl)cyclopropyl)quinoline-6-carboxamide] | ≤ 6.00
9 | CCOc1cncc(-c2ccc(NC(=O)C(C)(C)n3ccc(NS(=O)(=O)C4CC4)n3)nc2)n1 [I-19, 2-(3-(cyclopropanesulfonamido)-1H-pyrazol-1-yl)-N-(5-(6-ethoxypyrazin-2-yl)pyridin-2-yl)-2-methylpropanamide] | 6.00 to 7.00
10 | CCOc1cncc(-c2cnc(C(=O)N[C@H](CCCN(C)C)c3cc(NS(=O)(=O)C4CC4)ccn3)s2)n1 [I-156, (R)—N-(1-(4-(cyclopropanesulfonamido)pyridin-2-yl)-4-(dimethylamino)butyl)-5-(6-ethoxypyrazin-2-yl)thiazole-2-carboxamide] | > 7.00
11 | O=C(NCc1cc(NS(=O)(=O)C2CC2)ccn1)c1ncc(-c2cnn3ccc(Cl)cc23)s1 [I-197] | > 7.00
12 | CCOc1cncc(-c2cnc(C(=O)N[C@@H](COC)c3cc(NS(=O)(=O)C4CC4)ccn3)s2)n1 [I-187] | > 7.00
13 | CCOc1cncc(-c2cnc(C(=O)N3CCN(C)CC3c3cc(NS(=O)(=O)C4CC4)ccn3)s2)n1 (stereo not shown) [I-218, N-(2-(1-(5-(6-ethoxypyrazin-2-yl)thiazole-2-carbonyl)-4-methylpiperazin-2-yl)pyridin-4-yl)cyclopropanesulfonamide] | 6.00 to 7.00
14 | CCOc1cncc(-c2ccc(NC(=O)Cc3cc(NS(=O)(=O)C4CC4)ccn3)cc2)n1 [I-35] | > 7.00
15 | CCOc1cncc(-c2cnc(C(=O)N[C@@H](CCN3CC[C@@H](F)C3)c3cc(NS(=O)(=O)C4CC4)ccn3)s2)n1 [I-128, N—((S)-1-(4-(cyclopropanesulfonamido)pyridin-2-yl)-3-((R)-3-fluoropyrrolidin-1-yl)propyl)-5-(6-ethoxypyrazin-2-yl)thiazole-2-carboxamide] | > 7.00
16 | CCOc1cncc(-c2ccc(C(=O)NCc3cc(NS(=O)(=O)C(F)(F)F)ccn3)nc2)n1 [I-23, 5-(6-ethoxypyrazin-2-yl)-N-((4-((trifluoromethyl)sulfonamido)pyridin-2-yl)methyl) picolinamide] | > 7.00
17 | CCOc1cncc(-c2ccc(C(=O)NCc3cncc(NS(=O)(=O)C4CC4)c3)nc2)n1 [I-26, N-((5-(cyclopropanesulfonamido)pyridin-3-yl)methyl)-5-(6-ethoxypyrazin-2-yl) picolinamide] | > 7.00
18 | CCOc1cncc(-c2cnc(C(=O)N[C@@H](CN3CCN(C(C)C)CC3)c3cc(NS(=O)(=O)C4CC4)ccn3)s2)n1 (single isomer, unassigned) [I-118] | > 7.00
19 | CCOc1cncc(-c2cnc(C(=O)N[C@H](CN3CCN(C4CC4)CC3)c3cc(NS(=O)(=O)C4CC4)ccn3)s2)n1 (single isomer, unassigned) [I-120] | > 7.00
20 | CCOc1cncc(-c2cnc(C(=O)N[C@H](CCN3CC[C@H](F)C3)c3cc(NS(=O)(=O)C4CC4)ccn3)s2)n1 [I-126, N—((R)-1-(4-(cyclopropanesulfonamido)pyridin-2-yl)-3-((S)-3-fluoropyrrolidin-1-yl)propyl)-5-(6-ethoxypyrazin-2-yl)thiazole-2-carboxamide] | > 7.00
21 | CCOc1cncc(-c2cnc(C(=O)N[C@@H](CN3[C@@H]4COC[C@H]3C4)c3cc(NS(=O)(=O)C4CC4)ccn3)s2)n1 [I-114] | > 7.00
22 | O=C(NCc1cc(NS(=O)(=O)C2CC2)ccn1)c1ccc(-c2cncc(N3CCCC3)n2)cc1 [I-42] | 6.00 to 7.00

Row | Structure (SMILES) | pIC50
23 | CCOc1cncc(-c2cnc(C(=O)NC(CN3CCOCC3)c3cc(NS(=O)(=O)C4CC4)ccn3)s2)n1 (stereo not shown) [I-245] | > 7.00
24 | CCOc1cncc(-n2cnc(C(=O)N3CCC[C@@H]3c3ccnc(NS(=O)(=O)C4CC4)n3)c2)n1 [I-275, N-[4-[(2R)-1-[1-(6-ethoxypyrazin-2-yl)imidazole-4-carbonyl]pyrrolidin-2-yl]pyrimidin-2-yl]cyclopropanesulfonamide] | ≤ 6.00
25 | CCOc1cncc(-c2cnc(C(=O)N[C@H](CCN3CCCC3)c3cc(NS(=O)(=O)C4CC4)ccn3)s2)n1 [I-158, (R)—N-(1-(4-(cyclopropanesulfonamido)pyridin-2-yl)-3-(pyrrolidin-1-yl)propyl)-5-(6-ethoxypyrazin-2-yl)thiazole-2-carboxamide] | > 7.00
26 | CCOc1cncc(-c2ccc3c(c2)CN(C(CC)c2csc(NS(=O)(=O)C4CC4)n2)C3=O)n1 (stereo in doubt) [I-12a, (S)—N-(4-(1-(5-(6-ethoxypyrazin-2-yl)-1-oxoisoindolin-2-yl)propyl)thiazol-2-yl)cyclopropanesulfonamide] | 6.00 to 7.00
27 | CCOc1cncc(-c2cnc(C(=O)NC(COC)c3cc(NS(=O)(=O)C4CC4)ccn3)s2)n1 (stereo not shown) [I-194] | > 7.00
28 | O=C(NCc1cc(NS(=O)(=O)C2CC2)ccn1)c1ncc(-c2cnn3cc(Cl)ccc23)s1 [I-202] | 6.00 to 7.00
29 | CO[C@H]1CCN(c2cncc(-c3ccc(C(=O)NCc4cc(NS(=O)(=O)C5CC5)ccn4)cc3)n2)C1 (stereo in doubt) [I-45] | ≤ 6.00
30 | CCOc1cncc(-c2cnc(C(=O)N[C@@H](CCN3CCCC3)c3cc(NS(=O)(=O)C4CC4)ccn3)s2)n1 [I-159, (S)—N-(1-(4-(cyclopropanesulfonamido)pyridin-2-yl)-3-(pyrrolidin-1-yl)propyl)-5-(6-ethoxypyrazin-2-yl)thiazole-2-carboxamide] | > 7.00
31 | CCOc1cncc(-c2cnc(C(=O)NC(CCN3CC[C@@H](F)C3)c3cc(NS(=O)(=O)C4CC4)ccn3)s2)n1 (stereo partly drawn) [I-131, N-(1-(4-(cyclopropanesulfonamido)pyridin-2-yl)-3-((R)-3-fluoropyrrolidin-1-yl)propyl)-5-(6-ethoxypyrazin-2-yl)thiazole-2-carboxamide] | > 7.00
32 | CCOc1cncc(-c2cnc(C(=O)N[C@@H](C[C@H]3CCCCN3)c3cc(NS(=O)(=O)C4CC4)ccn3)s2)n1 (single isomer, unassigned) [I-138] | > 7.00
33 | CCC[C@@H]1CCN1c1ncc(C(=O)NCc2cc(NS(=O)(=O)C3CC3)ccn2)nc1C (single isomer, unassigned) [I-58] | 6.00 to 7.00
34 | CCOc1cncc(-n2cnc(C(=O)N3CCC[C@H]3c3ccnc(NS(=O)(=O)C4CC4)n3)c2)n1 [I-276, N-[4-[(2S)-1-[1-(6-ethoxypyrazin-2-yl)imidazole-4-carbonyl]pyrrolidin-2-yl]pyrimidin-2-yl]cyclopropanesulfonamide] | > 7.00
35 | CC[C@H]1CCN(c2ncc(C(=O)NCc3cc(NS(=O)(=O)C4CC4)ccn3)nc2C)C1 [I-81] | ≤ 6.00
36 | CCOc1cncc(N2CCN(C(=O)NCc3cc(NS(=O)(=O)C4CC4)ccn3)C(=O)C2)n1 [I-28] | ≤ 6.00
37 | CCOc1cncc(-c2cnc(C(=O)NC(CCN3CCCC3)c3cc(NS(=O)(=O)C4CC4)ccn3)s2)n1 (stereo not shown) [I-175, N-(1-(4-(cyclopropanesulfonamido)pyridin-2-yl)-3-(pyrrolidin-1-yl)propyl)-5-(6-ethoxypyrazin-2-yl)thiazole-2-carboxamide] | > 7.00
38 | CCOc1cncc(-c2ccc(C(=O)NCc3cc(NS(=O)(=O)C4CC4)ccn3)c(=O)[nH]2)n1 [I-59] | 6.00 to 7.00
39 | CCOc1cncc(-c2cnc(C(=O)NCc3cc(NS(=O)(=O)C4CC4)ccn3)o2)n1 [I-56, N-((4-(cyclopropanesulfonamido)pyridin-2-yl)methyl)-5-(6-ethoxypyrazin-2-yl)oxazole-2-carboxamide] | ≤ 6.00
40 | CCOc1cncc(-c2cnc(C(=O)NC(CN3CCNCC3)c3cc(NS(=O)(=O)C4CC4)ccn3)s2)n1 (stereo not shown) [I-217, N-(1-(4-(cyclopropanesulfonamido)pyridin-2-yl)-2-(piperazin-1-yl)ethyl)-5-(6-ethoxypyrazin-2-yl)thiazole-2-carboxamide] | > 7.00
41 | CCOc1cncc(-c2ccc(C(=O)NCc3cc(NS(=O)(=O)CC(F)(F)F)ccn3)nc2)n1 [I-66, 5-(6-ethoxypyrazin-2-yl)-N-((4-((2,2,2-trifluoroethyl)sulfonamido)pyridin-2-yl)methyl)picolinamide] | > 7.00
42 | O=C(NC1(c2csc(NS(=O)(=O)C3CC3)n2)CC1)c1ccc(-c2cnc3n2CCCC3)cc1 [I-260, N-[1-(2-cyclopropanesulfonamido-1,3-thiazol-4-yl)cyclopropyl]-4-[5H, 6H, 7H, 8H-imidazo[1,2-a]pyridin-3-yl]benzamide] | ≤ 6.00
43 | O=C(NCc1cc(NS(=O)(=O)C2CC2)ccn1)c1ncc(-c2cncc(C(F)(F)F)c2)s1 [I-251, N-((4-(cyclopropanesulfonamido)pyridin-2-yl)methyl)-5-(5-(trifluoromethyl)pyridin-3-yl)thiazole-2-carboxamide] | 6.00 to 7.00
